In patent US8642544B2, “N-terminus conformationally constrained GLP-1 receptor agonist compounds” (Amylin Pharmaceuticals, LLC, priority 2009, dated 2014):

What was measured:
[1] = target: T1, GLP-1 receptor (Rattus norvegicus, UniProt P32301); assay: in vitro functional assay at the GLP-1 receptor (cyclase, cAMP production in RIN m5f cell membranes); assay type: biochemical; settings: Cyclase GLP-1 Receptor EC50 (nM), Table 1; RIN m5f cell membranes, cAMP production (AlphaScreen)
T1 construct: 96-well assay plate containing RIN m5f cell membranes in an ATP/GTP mixture; endogenous in cells; host or cells: RIN m5f cell membranes
T1 sequence (P32301 22-463): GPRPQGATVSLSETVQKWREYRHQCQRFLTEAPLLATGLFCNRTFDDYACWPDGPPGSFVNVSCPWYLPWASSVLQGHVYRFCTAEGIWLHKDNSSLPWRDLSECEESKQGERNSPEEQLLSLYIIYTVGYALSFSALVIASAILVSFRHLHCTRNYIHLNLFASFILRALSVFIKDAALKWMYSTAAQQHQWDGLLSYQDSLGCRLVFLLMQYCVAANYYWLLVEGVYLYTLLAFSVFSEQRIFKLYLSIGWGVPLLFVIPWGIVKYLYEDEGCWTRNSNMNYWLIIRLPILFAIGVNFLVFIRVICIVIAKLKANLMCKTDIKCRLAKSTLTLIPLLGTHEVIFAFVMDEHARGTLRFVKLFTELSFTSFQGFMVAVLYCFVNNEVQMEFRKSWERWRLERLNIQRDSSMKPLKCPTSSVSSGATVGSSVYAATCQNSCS
Summary of the method: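 EC50 values were derived from four-parameter logistic fits of concentration-response curves for cAMP production. cAMP was measured by a competitive AlphaScreen assay using a biotinylated-cAMP probe. Membranes from RIN m5f rat cells were incubated with test compounds in an ATP/GTP mix.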

[2] = system: NIH/Swiss female mice; assay: in vivo basal glucose lowering assay; settings: subcutaneous injection
Protocol: Some compounds shown in Table 1 below were analyzed in an in vivo basal glucose lowering assay using the following procedure: A subcutaneous injection of either 200 μl phosphate-buffered saline (PBS) vehicle or test article was given immediately following baseline glucose (t=0) to NIH/Swiss female mice. Tail blood glucose samples were measured at t=2 and 4 hours post dose using a OneTouch® Ultra® (LifeScan, Inc., a Johnson & Johnson Company, Milpitas, Calif.). Body weight was measured daily. Significant test sample effects were identified by ANOVA (p<0.05), followed by Dunnett's post test using GraphPad Prism version 4.00 for Windows (GraphPad Software, San Diego Calif.).

[3] = Table 1, result in words (inactive / similar to GLP-1)

Compound: CC[C@H](C)[C@H](NC(=O)[C@H](Cc1ccccc1)NC(=O)[C@H](CC(C)C)NC(=O)[C@H](CCCNC(=N)N)NC(=O)[C@@H](NC(=O)[C@H](C)NC(=O)[C@H](CCC(=O)O)NC(=O)[C@H](CCC(=O)O)NC(=O)[C@H](CCC(=O)O)NC(=O)[C@H](CC(C)C)NC(=O)[C@H](CCC(N)=O)NC(=O)[C@H](CCCCN)NC(=O)[C@H](CO)NC(=O)[C@H](CC(C)C)NC(=O)[C@H](CC(=O)O)NC(=O)[C@H](CO)NC(=O)[C@@H](NC(=O)[C@H](Cc1ccccc1)NC(=O)[C@@H](NC(=O)[C@@H]1CSC2C[C@@H](C(=O)O)[C@H](NC(=O)[C@H](C)NC(=O)[C@@H](N)Cc3c[nH]cn3)C(=O)N21)[C@@H](C)O)[C@@H](C)O)C(C)C)C(=O)N[C@@H](CCC(=O)O)C(=O)N[C@@H](Cc1c[nH]c2ccccc12)C(=O)N[C@@H](CC(C)C)C(=O)N[C@@H](CCCCN)C(=O)N[C@@H](CCC(N)=O)C(=O)NCC(=O)NCC(=O)N1CCC[C@H]1C(=O)N[C@@H](CO)C(=O)N[C@@H](CCCCN)C(=O)N[C@@H](CCC(=O)O)C(=O)N[C@H](C(=O)N[C@H](C(=O)N[C@@H](CO)C(=O)O)[C@@H](C)CC)[C@@H](C)CC (stereo partly drawn) [16C]
- EC50 [1]: 1.1 nM
- In Vivo Glucose-Lowering Assay [2, 3]: inactive

Compound: CC[C@H](C)[C@H](NC(=O)[C@H](Cc1ccccc1)NC(=O)[C@H](CC(C)C)NC(=O)[C@H](CCCNC(=N)N)NC(=O)[C@@H](NC(=O)[C@H](C)NC(=O)[C@H](CCC(=O)O)NC(=O)[C@H](CCC(=O)O)NC(=O)[C@H](CCC(=O)O)NC(=O)[C@H](CC(C)C)NC(=O)[C@H](CCC(N)=O)NC(=O)[C@H](CCCCN)NC(=O)[C@H](CO)NC(=O)[C@H](CC(C)C)NC(=O)[C@H](CC(=O)O)NC(=O)[C@H](CO)NC(=O)[C@@H](NC(=O)[C@H](Cc1ccccc1)NC(=O)[C@@H](NC(=O)CN1C[C@H](CC(=O)O)[C@H](NC(=O)[C@H](C)NC(=O)[C@@H](N)Cc2c[nH]cn2)C1=O)[C@@H](C)O)[C@@H](C)O)C(C)C)C(=O)N[C@@H](CCC(=O)O)C(=O)N[C@@H](Cc1c[nH]c2ccccc12)C(=O)N[C@@H](CC(C)C)C(=O)N[C@@H](CCCCN)C(=O)N[C@@H](CCC(N)=O)C(=O)NCC(=O)NCC(=O)N1CCC[C@H]1C(=O)N[C@@H](CO)C(=O)N[C@@H](CCCCN)C(=O)N[C@@H](CCC(=O)O)C(=O)N[C@H](C(=O)N[C@H](C(=O)N[C@@H](CO)C(=O)O)[C@@H](C)CC)[C@@H](C)CC [16D]
- EC50 [1]: 1 nM
- In Vivo Glucose-Lowering Assay [2, 3]: inactive

Compound: CC[C@H](C)[C@H](NC(=O)[C@H](Cc1ccccc1)NC(=O)[C@H](CC(C)C)NC(=O)[C@H](CCCNC(=N)N)NC(=O)[C@@H](NC(=O)[C@H](C)NC(=O)[C@H](CCC(=O)O)NC(=O)[C@H](CCC(=O)O)NC(=O)[C@H](CCC(=O)O)NC(=O)[C@H](CC(C)C)NC(=O)[C@H](CCC(N)=O)NC(=O)[C@H](CCCCN)NC(=O)[C@H](CO)NC(=O)[C@H](CC(C)C)NC(=O)[C@H](CC(=O)O)NC(=O)[C@H](CO)NC(=O)[C@@H](NC(=O)[C@H](Cc1ccccc1)NC(=O)[C@@H](NC(=O)[C@H](C)N1CC[C@@H](C(=O)O)[C@H](NC(=O)[C@H](C)NC(=O)[C@@H](N)Cc2c[nH]cn2)C1=O)[C@@H](C)O)[C@@H](C)O)C(C)C)C(=O)N[C@@H](CCC(=O)O)C(=O)N[C@@H](Cc1c[nH]c2ccccc12)C(=O)N[C@@H](CC(C)C)C(=O)N[C@@H](CCCCN)C(=O)N[C@@H](CCC(N)=O)C(=O)NCC(=O)NCC(=O)N1CCC[C@H]1C(=O)N[C@@H](CO)C(=O)N[C@@H](CCCCN)C(=O)N[C@@H](CCC(=O)O)C(=O)N[C@H](C(=O)N[C@H](C(=O)N[C@@H](CO)C(=O)O)[C@@H](C)CC)[C@@H](C)CC [16F]
- EC50 [1]: 0.61 nM
- In Vivo Glucose-Lowering Assay ([2]; Table 1, time printed in minutes): about 30 minutes
